ChEMBL document CHEMBL1201862, “PubChem BioAssay data set” (2004)
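Grown in 96-well plates, cells were treated for 48 hours with each compound at five concentrations. Insufficient inhibition: endpoint recorded as highest concentration tested. At the GI50, growth is halved.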 Calls of active or inactive are those of the source. No stated cut-off is given here; in the data, active = GI50 up to about 1.1 µM and inactive = higher.

Tests used:
Assay in all cases: growth of human tumour cells (NCI), 48 h
[1] = system: LXFL 529
[2] = system: SF-295
[3] = system: DLD-1
[4] = system: NCI-H460
[5] = system: UACC-257
[6] = system: CCRF-CEM
[7] = system: U-251
[8] = system: A498
[9] = system: SR
[10] = system: Malme-3M
[11] = system: IGROV-1
[12] = system: OVCAR-5
[13] = system: SF-268
[14] = system: NCI-H23
[15] = system: MOLT-4
[16] = system: EKVX
[17] = system: SK-MEL-5
[18] = system: A549
[19] = system: KM12
[20] = system: TK-10
[21] = system: M19-MEL
[22] = system: UO-31
[23] = system: HCC 2998
[24] = system: SNB-78
[25] = system: NCI-H522
[26] = system: SF-539
[27] = system: HCT-116
[28] = system: HL-60
[29] = system: COLO 205
[30] = system: SW-620
[31] = system: ACHN
[32] = system: DMS-273
[33] = system: 786-0
[34] = system: RPMI-8226
[35] = system: SNB-75
[36] = system: CAKI-1
[37] = system: HOP-62
[38] = system: HOP-18
[39] = system: OVCAR-4
[40] = system: HT-29
[41] = system: K562
[42] = system: SK-OV-3
[43] = system: HCT-15
[44] = system: SK-MEL-2
[45] = system: KM-20L2
[46] = system: OVCAR-3
[47] = system: M14
[48] = system: OVCAR-8
[49] = system: SNB-19
[50] = system: SN12C
[51] = system: UACC-62
[52] = system: DMS-114
[53] = system: SK-MEL-28
[54] = system: NCI-H226
[55] = system: MCF7
[56] = system: XF498
[57] = system: RXF 393
[58] = system: LOX IMVI
[59] = system: NCI/ADR-RES

Measured: GI50

O=Cc1ccc2c(c1-c1c(C=O)ccc3c1OCO3)OCO2
inactive: [1] > 100 µM | [2] > 100 µM | [3] > 100 µM | [4] > 100 µM | [5] > 100 µM | [6] 85.1 µM | [7] > 100 µM | [8] > 100 µM | [9] > 100 µM | [10] > 100 µM | [11] > 100 µM | [12] > 100 µM | [13] > 100 µM | [14] > 100 µM | [15] > 100 µM | [16] > 100 µM | [17] > 100 µM | [18] > 100 µM | [19] > 100 µM | [20] > 100 µM | [21] > 100 µM | [22] > 100 µM | [23] > 100 µM | [24] > 100 µM | [25] > 100 µM | [26] > 100 µM | [27] > 100 µM | [28] > 100 µM | [29] > 100 µM | [30] > 100 µM | [31] > 100 µM | [32] > 100 µM | [33] > 100 µM | [34] 96.6 µM | [35] > 100 µM | [36] > 100 µM | [37] > 100 µM | [38] > 100 µM | [39] > 100 µM | [40] > 100 µM | [41] > 100 µM | [42] > 100 µM | [44] > 100 µM | [45] > 100 µM | [46] > 100 µM | [47] > 100 µM | [48] > 100 µM | [49] > 100 µM | [50] > 100 µM | [51] > 100 µM | [52] > 100 µM | [53] > 100 µM | [54] > 100 µM
> 100 µM: [43]

C=CC1(NC(=O)c2ccccc2)CCC(C(C)(C)C)CC1 (stereo unspecified)
inactive: [2] 7.26 µM | [3] 36.6 µM | [4] 31.1 µM | [5] 26.4 µM | [6] 18.5 µM | [7] 22.5 µM | [8] 48.2 µM | [55] 30.8 µM | [10] 34.2 µM | [11] 37.6 µM | [12] 28.1 µM | [13] 43.2 µM | [14] 32 µM | [15] 10.6 µM | [16] > 47.1 µM | [17] 19.9 µM | [18] 30.5 µM | [56] > 43.1 µM | [19] 35.2 µM | [21] 29.5 µM | [22] 22 µM | [23] 36.7 µM | [24] 39.1 µM | [25] 30.8 µM | [57] 49.3 µM | [58] 20.3 µM | [26] 44.3 µM | [27] 22.8 µM | [28] 14.4 µM | [29] 21.7 µM | [30] 35.3 µM | [32] 32.2 µM | [34] 20.9 µM | [35] 31.5 µM | [37] 35.8 µM | [38] 47.5 µM | [39] 27.7 µM | [40] 23.9 µM | [41] 30.8 µM | [42] 80.7 µM | [44] 25.2 µM | [45] 19.1 µM | [46] 29.6 µM | [59] 19.6 µM | [48] 49.7 µM | [49] 30.1 µM | [50] 35.2 µM | [51] 26.6 µM | [52] 27.7 µM | [53] 42.6 µM | [54] 27.8 µM
32.4 µM: [43]
